According to paper PMC12470154, “In Vitro Evaluation of Antimicrobial Amyloidogenic Peptides for the Treatment of Early and Mature Bacterial Biofilms” (International Journal of Molecular Sciences, 2025):

Columns and labels:
[1] = system: S. aureus (129B strain); assay: Mature biofilms, MTT assay; type: cell-based, Staphylococcus aureus; parameters: key: ↓: Decrease in the parameter (optical density) compared to the negative control; −: No decrease in the optical density; ↑: Reverse effect (increase in the optical density compared to the control); conditions: mature biofilm: peptide added after 24 h, further 24 h; 0.01-10 mg/mL
Protocol: (§1) After 24 h of incubation, the medium was removed. To assess the total biofilm biomass, the wells were rinsed with sterile PBS solution and stained with 0.1% crystal violet. The dye bound to the surface was then removed using 95% ethanol. To assess the presence of metabolically active cells, 0.3% MTT (PanEco Ltd., Moscow, Russia) solution was added to each well, and the plates were incubated at 37 °C for 2 h. After incubation, the MTT solution was removed, 150 µL of DMSO (Chimmed, Moscow, Russia) and 25 µL of glycine buffer were added to each well, and the plates were left at room temperature for 15 min. The resulting solutions were transferred to a flat-bottom 96-well plate, and optical density was measured at 595 nm.
(§2) A stationary-phase culture of the tested strain was diluted 100-fold in fresh medium (200 µL per well) and added to the wells of a 96-well round-bottom plate. […] After another 24 h, the medium was removed and the wells were rinsed with sterile PBS to eliminate planktonic cells. The procedures for assessing total biofilm biomass and cell metabolic activity using crystal violet and MTT assays were performed in the same manner as described above for early-stage biofilm experiments.

[2] = system: MRSA (SA 180-F strain); assay: Mature biofilms, MTT assay; type: cell-based, methicillin-resistant Staphylococcus aureus; conditions: mature biofilm
Protocol: as §1, §2

[3] = system: S. aureus (129B strain); assay: Mature biofilms, crystal violet staining; type: cell-based, Staphylococcus aureus; parameters: key: ↓: Decrease in the parameter (optical density) compared to the negative control; −: No decrease in the parameter; ↑: Reverse effect (increase in the optical density compared to the control); conditions: mature biofilm: peptide added after 24 h, further 24 h; 0.01-10 mg/mL
Protocol: as §1, §2

[4] = system: MRSA (SA 180-F strain); assay: Antibacterial activity on 0.7% agar (inhibition zone); type: cell-based, methicillin-resistant Staphylococcus aureus; parameters: key: +: The presence of a bacterial growth inhibition zone; −: The absence of a bacterial growth inhibition zone; conditions: drop on 0.7% agar, 24 h
Protocol: Drops of the samples were applied to the surface of solidified 0.7% agar at the concentrations indicated in Table 2 and Supplementary S2 (Figures S1–S4). After 24 h of incubation, the results were evaluated based on the presence or absence (+/−) of inhibition zones.
Once the agar solidified, drops of peptide samples at the concentrations 1, 0.1, 0.01, and 0.001 mg/mL were applied to the agar surface.

[5] = system: MRSA (SA 180-F strain); assay: Early biofilm formation, crystal violet staining; type: cell-based, methicillin-resistant Staphylococcus aureus; parameters: key: ↓: Decrease in the parameter (optical density) compared to the negative control; −: No decrease in the parameter; ↑: Reverse effect (increase in the optical density compared to the control); conditions: peptide present from inoculation, 24 h, OD 595 nm
Protocol: as §1

[6] = system: E. coli (MG1655 strain); assay: Early biofilm formation, crystal violet staining; type: cell-based, Escherichia coli; parameters: key: ↓: Decrease in the parameter (optical density) compared to the negative control; −: No decrease in the parameter; ↑: Reverse effect (increase in the optical density compared to the control); conditions: peptide present from inoculation, 24 h, OD 595 nm
Protocol: as §1

[7] = system: MRSA (SA 180-F strain); assay: Early biofilm formation, crystal violet staining; type: cell-based, methicillin-resistant Staphylococcus aureus; conditions: for concentration given with ↓ (crystal violet): 24 h; for biofilm biomass following treatment (crystal violet): Table 3; for effectiveness compared to meropenem: tested concentrations 0.01, 0.1, 1, 10 mg/mL, crystal violet
Protocol: as §1

[8] = system: P. aeruginosa (2943 strain); assay: Early biofilm formation, crystal violet staining; type: cell-based, Pseudomonas aeruginosa; conditions: 24 h; for change of optical density after crystal violet staining vs negative control: peptide present from inoculation, OD 595 nm
Protocol: as §1

[9] = system: S. aureus (129B strain); assay: Early biofilm formation, MTT assay; type: cell-based, Staphylococcus aureus; parameters: key: ↓: Decrease in the parameter (optical density) compared to the negative control; −: No decrease in the parameter; ↑: Reverse effect (increase in the optical density compared to the control); conditions: 24 h, 0.3% MTT 2 h 37 °C, OD 595 nm
Protocol: as §1

[10] = system: MRSA (SA 180-F strain); assay: Mature biofilms, MTT assay; type: cell-based, methicillin-resistant Staphylococcus aureus; parameters: key: ↓: Decrease in the parameter (optical density) compared to the negative control; −: No decrease in the parameter; ↑: Reverse effect (increase in the optical density compared to the control); conditions: mature biofilm: peptide added after 24 h, further 24 h; 0.01-10 mg/mL
Protocol: as §1, §2

[11] = system: S. aureus (129B strain); assay: Antibacterial activity in liquid medium (optical density); type: cell-based, Staphylococcus aureus; parameters: key to change of optical density vs negative control: ↓: Decrease in the parameter (optical density) compared to the negative control; −: No decrease in the parameter; ↑: Reverse effect (increase in the optical density compared to the control); conditions: 24 h, 37 °C; for change of optical density vs negative control: OD 595 nm
Protocol: (§3) To evaluate the antibacterial activity of peptides in liquid culture, a stationary-phase culture of the tested bacterial strain was diluted 100-fold in fresh medium containing peptides or gentamicin (positive control) at the specified concentrations. A total volume of 200 µL was added to each well of a 96-well round-bottom microtiter plate. After 24 h of incubation at 37 °C, the samples were transferred to a flat-bottom 96-well microtiter plate, and the optical density was measured at 595 nm. Separately, the optical density of medium containing peptides but no bacteria was measured. These values were used as baseline (zero) readings for subsequent data analysis.

[12] = system: P. aeruginosa (2943 strain); assay: as above; type: cell-based, Pseudomonas aeruginosa; parameters: key to change of optical density vs negative control: ↓: Decrease in the parameter (optical density) compared to the negative control; −: No decrease in the parameter; ↑: Reverse effect (increase in the optical density compared to the control); conditions: 24 h, 37 °C; for change of optical density vs negative control: OD 595 nm
Protocol: as §3

[13] = system: MRSA (SA 180-F strain); assay: Early biofilm formation, MTT assay; type: cell-based, methicillin-resistant Staphylococcus aureus; parameters: key: ↓: Decrease in the parameter (optical density) compared to the negative control; −: No decrease in the parameter; ↑: Reverse effect (increase in the optical density compared to the control); conditions: 24 h, 0.3% MTT 2 h 37 °C, OD 595 nm
Protocol: as §1

Sequence	change of optical density after MTT assay vs negative control [1]	concentration given with ↓ (MTT) [2] [mg/mL]	change of optical density after crystal violet staining vs negative control [3]	bacterial growth inhibition zone ([4]; 0.001 mg/mL)	bacterial growth inhibition zone ([4]; 0.01 mg/mL)	bacterial growth inhibition zone ([4]; 0.1 mg/mL)	bacterial growth inhibition zone ([4]; 1 mg/mL)	change of optical density after crystal violet staining vs negative control [5]	change of optical density after crystal violet staining vs negative control [6]	concentration given with ↓ (crystal violet) [7] [mg/mL]	biofilm biomass following treatment (crystal violet) [7]	effectiveness compared to meropenem ([7]; Figure 1)	concentration given with ↓ (crystal violet) [8] [mg/mL]	change of optical density after crystal violet staining vs negative control [8]	change of optical density after MTT assay vs negative control [9]	change of optical density after MTT assay vs negative control [10]	change of optical density vs negative control [11]	concentration given with ↓ (decrease in optical density) [12] [mg/mL]	change of optical density vs negative control [12]	change of optical density after MTT assay vs negative control [13]	further results
RKKRRQRRRGGGGVVVHINGGKFGGGGSRQIKIWFQNRRMKWKK [R44K^S]	−	0.01	↑	−	−	−	+	↓ (1 mg/mL)	↑	1	marked reduction in biofilm biomass	less effective compared to meropenem	10	↓ (10 mg/mL)	↑	↓ (0.01 mg/mL)	↓ (10 mg/mL)	10	↓ (10 mg/mL)	↑	bacterial growth inhibition zone ([4]; 1 mg/mL, listed as R44K^P): −; change of optical density after crystal violet staining vs negative control ([5]; listed as R44K^P): ↓ (10 mg/mL); effect on MRSA biofilm formation (crystal violet staining intensity) ([7]; 1 and 10 mg/mL, Figure 1, two independent replicates): inhibitory effect; concentration given with ↓ (crystal violet) ([7]; listed as R44K^P): 10 mg/mL; concentration given with ↓ (decrease in optical density) [11]: 10 mg/mL; change of optical density vs negative control ([11]; listed as R44K^P): ↑
VTDFGVFVEIGGGGSRQIKIWFQNRRMKWKK [V31K^T, amyloidogenic fragment of S1 of T. thermophilus linked via glycine-rich linker to antennapedia peptide]	−	0.01	↑	−	−	−	−	↑	↑	10	marked reduction in biofilm biomass	less effective compared to meropenem	10	−	↑	↓ (0.01 mg/mL)	−	10	−	↑	change of optical density after crystal violet staining vs negative control ([5]; listed as V31K^S): ↓ (10 mg/mL); effect on MRSA biofilm formation (crystal violet staining intensity) ([7]; 0.01 mg/mL, Figure 1): inhibitory effect; effect on MRSA biofilm formation (crystal violet staining intensity) ([7]; 10 mg/mL, Figure 1): reversed; change of optical density after crystal violet staining vs negative control ([8]; listed as V31K^S): ↓ (10 mg/mL); change of optical density vs negative control ([11]; listed as V31K^S): ↑; change of optical density vs negative control ([12]; listed as V31K^S): ↓ (10 mg/mL)
